ChEMBL document CHEMBL3244087, “Ergoline congeners as potential inhibitors of prolactin release. 3. Derivatives of 3-phenylpiperidine” (1977)

Each compound was assayed on Rattus norvegicus (assay: Inhibition of prolactin release in reserpinized rat assessed as reduction in serum prolactin level at 1 mg, ip after 1 hr post dose by radioimmunoassay relative to untreated control).
Type: functional
For `CCOC(=O)C1CN(C)CC(c2cc(OC)c(C)cc2OC)C1=O` (stereo unspecified), the “inhibition (INH)” value was 22%.
In the case of `CN1CCc2cccc3c2[C@H]1Cc1ccc(O)c(O)c1-3` [APOMORPHINE], the “inhibition (INH)” value is reported as 29%.

These compounds were tested on Rattus norvegicus (assay: Inhibition of prolactin release in reserpinized rat assessed as reduction in serum prolactin level at 2 mg, ip after 1 hr post dose by radioimmunoassay relative to untreated control).
Type: functional
For `COc1cc(C2CC(CO)CN(C)C2)c(OC)cc1C` (stereo unspecified), the “inhibition (INH)” value was -2%.
For `COc1cc(C2CC(CC#N)CN(C)C2)c(OC)cc1C` (stereo unspecified), the “inhibition (INH)” value was -13%.
With `CCOC(=O)C1CC(c2cc(OC)c(C)cc2OC)CN(C)C1` (stereo unspecified) the “inhibition (INH)” value was 5%.
With `CCOC(=O)C1=CC(c2cc(OC)c(C)cc2OC)CN(C)C1` (stereo unspecified) the “inhibition (INH)” value was -5%.
